Experimental data: patent US10555987B2, “GHRH agonists for the treatment of ischemic disorders” (UNIVERSITY OF MIAMI, priority 2012, dated 2020)
Non-standard residues stand in square brackets, D forms with d. Residues, ends and D or L forms follow the SMILES beside them. *: point of attachment. Desaminotyrosyl = O=C(CCc1ccc(O)cc1)*; NMeY = CN[C@@H](Cc1ccc(O)cc1)C(=O)O; Agmatine = N=C(N)NCCCCN*; Nle = CCCC[C@H](N)C(=O)O; Orn = NCCC[C@H](N)C(=O)O; Abu = CC[C@H](N)C(=O)O; Ava = NCCCCC(=O)O

Columns and labels:
GHRH receptor [1] = molecular target: T1, GHRH receptor (Homo sapiens, UniProt Q02643); assay: Receptor binding in vitro, 125I-labeled [His1,Nle27]-hGHRH(1-32)NH2, membrane receptors of human anterior pituitary cells (Table 14); details: for Relative affinity (Binding potency) compared to JI-38: JI-38 = 1; for Relative affinity (Binding potency) compared to hGHRH(1-29): hGHRH(1-29)NH2 = 1
T1 sequence (Q02643 23-423): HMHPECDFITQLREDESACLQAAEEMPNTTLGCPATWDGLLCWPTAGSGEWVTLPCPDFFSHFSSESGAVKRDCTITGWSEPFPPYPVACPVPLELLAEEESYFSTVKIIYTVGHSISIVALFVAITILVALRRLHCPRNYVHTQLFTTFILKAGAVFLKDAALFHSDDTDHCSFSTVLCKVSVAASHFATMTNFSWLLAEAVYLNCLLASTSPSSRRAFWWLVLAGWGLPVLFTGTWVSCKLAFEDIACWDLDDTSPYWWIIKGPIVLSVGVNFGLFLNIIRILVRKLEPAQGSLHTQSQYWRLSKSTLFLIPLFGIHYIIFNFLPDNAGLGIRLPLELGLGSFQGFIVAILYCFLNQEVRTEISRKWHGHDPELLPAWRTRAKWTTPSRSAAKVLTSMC
Description: Normal human pituitary was purchased from the National Hormone and Peptide Program (UCLA Medical Center, Torrance, Calif.).

GH release [2] = assay: In vivo endocrine activity, GH release after subcutaneous administration (Table 9); details: rat, subcutaneous (s.c.) injection
Experimental: Subcutaneous Administration. Adult male rats were used and anesthetized with pentobarbital (6 mg/100 g, b.w.), by i.p. injection. […] Blood samples were taken from the jugular vein 5, 15 and/or 30 minutes after the injection. The blood samples were centrifuged, plasma was removed and the GH level was measured byELISA. The results are summarized in terms of potency in Table 9.

GH release [3] = assay: GH releasing potency in vivo, subcutaneous administration (Example 14, Table 12); set-up: species or system rat; details: s.c.; for Serum GH level at selected time after injection (ng/ml), 0 min / Serum GH level at selected time after injection (ng/ml), 15 min / Serum GH level at selected time after injection (ng/ml), 30 min: male rats, dose 3 μg/kg, mean ± SEM
Experimental: Male Sprague-Dawley rats, weighing 200-250 g, were purchased from Charles River Laboratory (Wilmington, Mass.) and used for experiments. All animal procedures were approved by the Veterans Affairs Animal Care and Use Committee and were conducted in accordance with additional institutional guidelines as well. Briefly, groups of 5-6 animals were used in each experiment. The rats were anesthetized with 50 mg/kg of sodium pentobarbital (Nembutal, Lundbeck Inc., Deerfield, Ill.). Twenty min after inducing anesthesia, GHRH(1-29)NH2, JI-38, or new analogs were injected into the animals intravenously (i.v.) or subcutaneously (s.c.). The peptides were dissolved in 0.01 M acetic acid to get 1 μg/μl stock solution, and then diluted with 5% mannitol. Control rats received 5% mannitol only. Blood samples were collected from the jugular vein at selected times and were used for serum preparation. Concentrations of GH in rat sera were determined by ELISA. The relative potencies of tested peptides were calculated using GHRH(1-29)NH2 and JI-38 for comparison, whose potency was defined as 1. The equivalent dosage of GHRH(1-29)NH2 to reach the same level of serum growth hormone release after injection of the specific tested peptide was determined from a GHRH(1-29)NH2 standard curve using Origin 6.0 software. […] Serum GH was determined using the rat Growth Hormone ELISA kit (ALPCO Diagnostics, Mill Valley, Calif.) according to the manufacturer's instruction. Absorbance at 405 nm was measured by a Victor 3 Multi-label Counter (Perkin-Elmer, Waltham, Md.).

GHRH receptor [4] = molecular target: T1, GHRH receptor; assay: GHRH receptor binding, competition with 125I-labeled JV-1-42, human pituitary membrane homogenates (Table 7); set-up: Normal human pituitaries were purchased from the National Hormone and Peptide Program; tissue National Hormone and Peptide Program (A.F. Parlow, Harbor-UCLA Medical Center, Torrance, Calif.); host or cells: normal human pituitary, membrane fraction; details: for Relative affinity (Binding potency) vs JI-38: JI-38 = 1, Table 7
Description: Normal human pituitaries were purchased from the National Hormone and Peptide Program (A.F. Parlow, Los Angeles, County Harbor-UCLA Medical Center, Torrance, Calif.).

SMILES: CCCC[C@H](NC(=O)[C@@H](NC(=O)[C@H](CC(=O)O)NC(=O)[C@H](CCC(N)=O)NC(=O)[C@H](CC(C)C)NC(=O)[C@H](CC(C)C)NC(=O)[C@H](CCCN)NC(=O)[C@H](CCCNC(=N)N)NC(=O)[C@H](C)NC(=O)[C@H](CO)NC(=O)[C@H](CC(C)C)NC(=O)[C@H](CCC(N)=O)NC(=O)[C@H](CC)NC(=O)[C@H](CC(C)C)NC(=O)[C@@H](NC(=O)[C@H](CCCN)NC(=O)[C@H](CCCNC(=N)N)NC(=O)[C@H](Cc1ccc(O)cc1)NC(=O)[C@H](CO)NC(=O)[C@H](CCC(N)=O)NC(=O)[C@@H](NC(=O)[C@H](Cc1ccccc1)NC(=O)[C@@H](NC(=O)[C@H](C)NC(=O)[C@H](CC(=O)O)NC(=O)[C@@H](C)NC(=O)[C@H](Cc1ccc(O)cc1)N(C)C(C)=O)[C@@H](C)CC)[C@@H](C)O)C(C)C)[C@@H](C)CC)C(=O)N[C@@H](CC(=O)O)C(=O)NCCCCNC(=N)N [Peptide P-20351, [Ac—N—Me-Tyr^1, D-Ala^2, Gln^8, Orn^12, Abu^15, Orn^21, Nle^27, Asp^28, Agm^29] hGHRH(1-29)NH2] (Ac-[NMeY][dA]DAIFTQSYR[Orn]VL[Abu]QLSAR[Orn]LLQDI[Nle]D-Agmatine)
- Relative affinity (Binding potency) compared to JI-38 (GHRH receptor [1]): 0.71
- GHRH receptor binding affinity (in words) (GHRH receptor [1]; compared to JI-38): weaker GH-releasing potency and GH receptor binding affinity
- Relative affinity (Binding potency) compared to hGHRH(1-29) (GHRH receptor [1]): 1.98
- GH releasing potency relative to JI-38 (=1) (GH release [2]; 15 min after): 0.38
- GH releasing potency relative to JI-38 (=1) (GH release [2]; 30 min after): 0.44
- Serum GH level at selected time after injection (ng/ml), 0 min (GH release [3]): 30.6 ± 7.2 ng/mL
- Serum GH level at selected time after injection (ng/ml), 15 min (GH release [3]): 90.8 ± 20.3 ng/mL
- Serum GH level at selected time after injection (ng/ml), 30 min (GH release [3]): 65.4 ± 10.1 ng/mL
- GH-releasing potency after s.c. administration (in words) (GH release [3]): weaker GH-releasing potency
- Relative potency compared to GHRH(1-29), 15 min (GH release [3]): 18.8
- Relative potency compared to JI-38, 15 min (GH release [3]): 0.30
- Relative potency compared to GHRH(1-29), 30 min (GH release [3]): 33.6
- Relative potency compared to JI-38, 30 min (GH release [3]): 0.30
- IC50 (GHRH receptor [4]; 125I-JV-1-42, human pituitary membranes, Table 7): 3.44 nM
- Relative affinity (Binding potency) vs JI-38 (GHRH receptor [4]): 1.26

SMILES: CCCC[C@H](NC(=O)[C@@H](NC(=O)[C@H](CC(=O)O)NC(=O)[C@H](CCC(N)=O)NC(=O)[C@H](CC(C)C)NC(=O)[C@H](CC(C)C)NC(=O)[C@H](CCCN)NC(=O)[C@H](CCCNC(=N)N)NC(=O)[C@H](C)NC(=O)[C@H](CO)NC(=O)[C@H](CC(C)C)NC(=O)[C@H](CCC(N)=O)NC(=O)[C@H](CC)NC(=O)[C@H](CC(C)C)NC(=O)[C@@H](NC(=O)[C@H](CCCN)NC(=O)[C@H](CCCNC(=N)N)NC(=O)[C@H](Cc1ccc(O)cc1)NC(=O)[C@H](CO)NC(=O)[C@H](CCC(N)=O)NC(=O)[C@@H](NC(=O)[C@H](Cc1ccccc1)NC(=O)[C@@H](NC(=O)[C@H](C)NC(=O)[C@H](CC(=O)O)NC(=O)[C@H](C)NC(=O)CCc1ccc(O)cc1)[C@@H](C)CC)[C@@H](C)O)C(C)C)[C@@H](C)CC)C(=O)N[C@@H](CC(=O)O)C(=O)N[C@@H](CCCNC(=N)N)C(=O)NCCCCC(N)=O [Peptide P-22327, [Dat^1, Gln^8, Orn^12, Abu^15, Orn^21, Nle^27, Asp^28, Apa^30]hGHRH(1-30)NH2] (Desaminotyrosyl-ADAIFTQSYR[Orn]VL[Abu]QLSAR[Orn]LLQDI[Nle]DR[Ava]-NH2)
- Relative affinity (Binding potency) compared to JI-38 (GHRH receptor [1]): 1.34
- Relative affinity (Binding potency) compared to hGHRH(1-29) (GHRH receptor [1]): 3.75
- GH releasing potency relative to JI-38 (=1) (GH release [2]; 15 min after): 1.15
- GH releasing potency relative to JI-38 (=1) (GH release [2]; 30 min after): 1.30
- Serum GH level at selected time after injection (ng/ml), 0 min (GH release [3]): 31.5 ± 3.4 ng/mL
- Serum GH level at selected time after injection (ng/ml), 15 min (GH release [3]): 258.7 ± 31.1 ng/mL
- Serum GH level at selected time after injection (ng/ml), 30 min (GH release [3]): 138 ± 27.9 ng/mL
- Relative potency compared to GHRH(1-29), 15 min (GH release [3]): 73.5
- Relative potency compared to JI-38, 15 min (GH release [3]): 1.16
- Relative potency compared to GHRH(1-29), 30 min (GH release [3]): 126.5
- Relative potency compared to JI-38, 30 min (GH release [3]): 1.16
- Relative affinity (Binding potency) vs JI-38 (GHRH receptor [4]): 2.18

SMILES: CCCC[C@H](NC(=O)[C@@H](NC(=O)[C@H](CC(=O)O)NC(=O)[C@H](CCC(N)=O)NC(=O)[C@H](CC(C)C)NC(=O)[C@H](CC(C)C)NC(=O)[C@H](CCCN)NC(=O)[C@H](CCCNC(=N)N)NC(=O)[C@H](C)NC(=O)[C@H](CO)NC(=O)[C@H](CC(C)C)NC(=O)[C@H](CCC(N)=O)NC(=O)[C@H](CC)NC(=O)[C@H](CC(C)C)NC(=O)[C@@H](NC(=O)[C@H](CCCN)NC(=O)[C@H](CCCNC(=N)N)NC(=O)[C@H](Cc1ccc(O)cc1)NC(=O)[C@H](CO)NC(=O)[C@H](CC(N)=O)NC(=O)[C@@H](NC(=O)[C@H](Cc1ccccc1)NC(=O)[C@@H](NC(=O)[C@H](C)NC(=O)[C@H](CC(=O)O)NC(=O)[C@@H](C)NC(=O)[C@H](Cc1ccc(O)cc1)NC)[C@@H](C)CC)[C@@H](C)O)C(C)C)[C@@H](C)CC)C(=O)N[C@@H](CC(=O)O)C(=O)N[C@@H](CCCNC(=N)N)C(=O)NCC [Peptide P-28421, [N—Me-Tyr^1, D-Ala^2, Orn^12, Abu^15, Orn^21, Nle^27, Asp^28]hGHRH(1-29) NH—CH2—CH3] (H-[NMeY][dA]DAIFTNSYR[Orn]VL[Abu]QLSAR[Orn]LLQDI[Nle]DR-NHEt)
- Relative affinity (Binding potency) compared to JI-38 (GHRH receptor [1]): 0.90
- Relative affinity (Binding potency) compared to hGHRH(1-29) (GHRH receptor [1]): 2.50
- Serum GH level at selected time after injection (ng/ml), 0 min (GH release [3]): 44.0 ± 8.9 ng/mL
- Serum GH level at selected time after injection (ng/ml), 15 min (GH release [3]): 252.4 ± 33.3 ng/mL
- Serum GH level at selected time after injection (ng/ml), 30 min (GH release [3]): 137.3 ± 17.5 ng/mL
- Relative potency compared to GHRH(1-29), 15 min (GH release [3]): 71.2
- Relative potency compared to JI-38, 15 min (GH release [3]): 1.13
- Relative potency compared to GHRH(1-29), 30 min (GH release [3]): 125.4
- Relative potency compared to JI-38, 30 min (GH release [3]): 1.12
- Relative affinity (Binding potency) vs JI-38 (GHRH receptor [4]): 2.96
